{
  "source": "patent US11596626B2",
  "about": "“Compound for use against pathogenic Neisseria and Haemophilus species and Moraxella catarrhalis” (priority 2017, dated 2023)",
  "key": {"HeLa cells": {"test_system": "HeLa cells", "assay": "MTT assay of metabolic activity (cytotoxicity)", "assay_type": "cell-based, human", "experimental": "HeLa cells in 24-well plate were incubated for 24 h with concentrations of 0.5 to 10 μM NQNO or solvent (DMSO) as a control. Metabolic activity as a measure of mitochondrial respiration was recorded using 3-(4,5-Dimethylthiazol-2-yl)-2,5-diphenyltetrazoliumbromid (MTT) as reporting agent, Activity was measured with a plate reader at 550 nm, (FIG. 6). Shown are mean values+/S.D. of four replicate wells.\nHeLa S3 cells were cultivated in Dulbecco's modified Eagle's medium (DMEM) medium supplemented with 10% fetal calf serum and passaged every 2-3 days. Primary human vaginal epithelial cells (hVEC/MS74) were obtained from A. J. Schaeffer (Feinberg School of Medicine, Northwestern University, Chicago, Ill.) and are derived from vaginal tissue of a post-menopausal person. The cell line was created through immortalization of these cells with human papilloma virus 16, E6 and E7 genes according to literature (N. Rajan et. al., Characterization of an immortalized human vaginal epithelial cell line. J Urol 163, 616-622 (2000)). […]\nAll plates were coated overnight at 4° C. with 0.1% gelatine in PBS before use. […] 0D550 was measured using a Thermo Fisher Varioskan Flash spectrophotometer."}, "[1]": {"assay": "Stability in deuterated methanol by proton NMR", "assay_type": "physicochemical", "conditions": "25 mM in deuterated methanol, 25° C. or 37° C., 28 days", "experimental": "Two samples of NQNO were dissolved in deuterated methanol (CD3OD) to reach a final concentration of 25 mM. Samples were kept at 25° C. or 37° C. for 28 days and proton NMR spectra were measured with the same acquisition parameters every week and the spectra compared with the ones from day 0."}, "N. gonorrhoeae": {"test_system": "N. gonorrhoeae", "assay": "Vaginal colonization of CEAtg female mice, re-isolation of gonococci by swab", "assay_type": "in vivo, Neisseria gonorrhoeae", "experimental": "By using genetically modified mice (CEA-transgenic; CEAtg mice), which express a human receptor for the gonococcal Opa-adhesin on their mucosal surface, it is possible to study the initial colonization of the upper genital tract by N. gonorrhoeae and to re-isolate these pathogens after intra-vaginal challenge (FIG. 7). 6 to 8 week old, female wildtype (black) or CEA-transgenic (CEAtg, red) mice were infected with N. gonorrhoeae. 2 h after infection, the animals were treated with 20 μl buffer containing solvent (DMSO) or 50 μM NQNO (Compound represented by the Formula (5)). 20 h later, vaginal swaps were taken and plated on selective agar. Each dot refers to bacteria isolated from an individual animal (n≥5) (cf. FIG. 7). […]\nIn a further experiment, experimental vaginal infection of female mice with N. gonorrhoeae was performed as previously described in the literature (P. Muenzner, V. Bachmann, J. Hentschel, W. Zimmermann, C. R. Hauck, Human-restricted bacterial pathogens block shedding of epithelial cells by stimulating integrin activation. Science 329, 1197-1201 (2010)). […] Serial dilutions of re-isolated bacteria were plated on GC agar containing chloramphenicol (10 μg/ml) and erythromycin (7 μg/ml) and the colonies were counted after 20 h of incubation at 37° C., 5% CO2."}},
  "note": "Entries after “also recorded” stand apart in the source; their conditions may differ.",
  "data": [
    {"smiles": "CCCCCCCCCc1cc(=O)c2ccccc2n1O", "note": "[NQNO, 1-Hydroxy-2-nonylquinolin-4(1H)-one]", "values": [
      {"measurement": "Cytotoxicity (metabolic activity, MTT)", "setting": "HeLa cells; 10 μM, up to 24 h, preliminary experiment, FIG. 6", "value": "does not lead to cytotoxicity"},
      {"measurement": "Cytotoxicity (metabolic activity, MTT)", "setting": "HeLa cells; up to 10 μM, 48 h, FIG. 12", "value": "did not exhibit signs of cytotoxicity"},
      {"measurement": "Stability in solvent", "setting": "[1]", "value": "stable at 37 °C in deuterated methanol for at least one month"},
      {"measurement": "Number of re-isolated gonococci (vaginal colonization)", "setting": "N. gonorrhoeae; CEAtg female mice, 20 μl of 50 μM topical 2 h after infection, swabs 20 h later, FIG. 7", "value": "significantly (***; p<0.001) reduces the number of re-isolated gonococci; also recorded: completely blocks vaginal colonization"},
      {"measurement": "Re-isolated gonococci from the genital tract", "setting": "N. gonorrhoeae; CEAtg mice, 10 μl of 25 μM or 50 μM intravaginally 1 h after infection, swabs 24 h later, FIG. 15", "value": "hardly any gonococci could be re-isolated"}
    ]}
  ]
}
